Source: patent US11866430B2, “Naphthyridinone compounds useful as T cell activators” (priority 2018, dated 2024)
Read-outs that look alike come from different tables or passages of the source.

Tests used:
human DGKα [1] = molecular target: T1, human DGKα (Homo sapiens (Human), UniProt P23743); assay: DGKα LIPGLO assay (extruded liposome substrate); format: biochemical
Procedure, shortened: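 Human full-length DGKα, His-tagged and produced in Sf9 cells, assayed at 20 nM (4× stock) on extruded liposomes of PS, 0.25 mM DAG and 2.75 mM PC, preincubated 10 min. Reaction started with 300 μM ATP (stock) and ran 1 h in MOPS pH 7.5/MgCl2/CaCl2/DTT buffer.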

[2] = system: pre-activated CD4 T cells and Raji cells; assay: Raji CD4 T Cell IL2 Assay; format: cell-based
human DGKζ [3] = molecular target: T2, human DGKζ (Homo sapiens (Human), UniProt Q13574); assay: DGKζ LIPGLO assay (extruded liposome substrate); format: biochemical; settings: extruded liposome substrate; read-out: DGKζ LIPGLO IC50
Procedure, shortened: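 Sf9-derived DGKζ was premixed 10 min with PC/DAG/PS liposomes (100 nm extruded) in MOPS pH 7.5 buffer containing NaCl, MgCl2, CaCl2 and DTT.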

human DGKζ [4] = molecular target: T2, human DGKζ; assay: DGKζ assay (detergent/lipid micelle substrate); format: biochemical; settings: detergent/lipid micelle substrate; read-out: DGKζ IC50
Procedure, shortened: (§1)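 Full-length human DGKζ (and DGKα), C-terminal His-tagged, Sf9-expressed, with phosphatidylserine/DAG micelles in 50 mM octyl glucoside; buffer 50 mM MOPS pH 7.5, 100 mM NaCl, 10 mM MgCl2, 1 μM CaCl2, 1 mM DTT.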

human DGKα [5] = molecular target: T1, human DGKα; assay: biochemical; settings: detergent/lipid micelle substrate; read-out: DGKα IC50
Procedure, shortened: as §1

T1 sequence (P23743 other isoform, or with tags, fused parts or gaps): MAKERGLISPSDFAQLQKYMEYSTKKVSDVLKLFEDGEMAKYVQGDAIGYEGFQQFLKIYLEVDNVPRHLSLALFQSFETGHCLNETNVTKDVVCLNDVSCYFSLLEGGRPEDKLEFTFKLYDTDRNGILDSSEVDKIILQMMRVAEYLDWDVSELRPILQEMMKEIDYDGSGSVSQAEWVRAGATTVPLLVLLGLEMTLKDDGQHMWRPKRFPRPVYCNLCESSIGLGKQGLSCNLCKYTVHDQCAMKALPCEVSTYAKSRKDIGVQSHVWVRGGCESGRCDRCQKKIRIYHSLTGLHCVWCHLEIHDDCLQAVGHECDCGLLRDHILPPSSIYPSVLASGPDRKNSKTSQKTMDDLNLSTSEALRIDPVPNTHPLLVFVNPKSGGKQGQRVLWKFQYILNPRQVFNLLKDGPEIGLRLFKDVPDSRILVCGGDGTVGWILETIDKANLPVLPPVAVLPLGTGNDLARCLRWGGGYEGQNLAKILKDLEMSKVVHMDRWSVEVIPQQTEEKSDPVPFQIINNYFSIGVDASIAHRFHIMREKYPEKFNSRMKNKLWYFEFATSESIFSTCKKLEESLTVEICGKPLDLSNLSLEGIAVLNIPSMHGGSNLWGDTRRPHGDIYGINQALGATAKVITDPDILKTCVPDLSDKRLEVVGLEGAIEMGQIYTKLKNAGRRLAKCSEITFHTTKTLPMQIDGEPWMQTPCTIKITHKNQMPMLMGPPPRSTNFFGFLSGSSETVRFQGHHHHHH
T2 sequence (Q13574 other isoform, or with tags, fused parts or gaps): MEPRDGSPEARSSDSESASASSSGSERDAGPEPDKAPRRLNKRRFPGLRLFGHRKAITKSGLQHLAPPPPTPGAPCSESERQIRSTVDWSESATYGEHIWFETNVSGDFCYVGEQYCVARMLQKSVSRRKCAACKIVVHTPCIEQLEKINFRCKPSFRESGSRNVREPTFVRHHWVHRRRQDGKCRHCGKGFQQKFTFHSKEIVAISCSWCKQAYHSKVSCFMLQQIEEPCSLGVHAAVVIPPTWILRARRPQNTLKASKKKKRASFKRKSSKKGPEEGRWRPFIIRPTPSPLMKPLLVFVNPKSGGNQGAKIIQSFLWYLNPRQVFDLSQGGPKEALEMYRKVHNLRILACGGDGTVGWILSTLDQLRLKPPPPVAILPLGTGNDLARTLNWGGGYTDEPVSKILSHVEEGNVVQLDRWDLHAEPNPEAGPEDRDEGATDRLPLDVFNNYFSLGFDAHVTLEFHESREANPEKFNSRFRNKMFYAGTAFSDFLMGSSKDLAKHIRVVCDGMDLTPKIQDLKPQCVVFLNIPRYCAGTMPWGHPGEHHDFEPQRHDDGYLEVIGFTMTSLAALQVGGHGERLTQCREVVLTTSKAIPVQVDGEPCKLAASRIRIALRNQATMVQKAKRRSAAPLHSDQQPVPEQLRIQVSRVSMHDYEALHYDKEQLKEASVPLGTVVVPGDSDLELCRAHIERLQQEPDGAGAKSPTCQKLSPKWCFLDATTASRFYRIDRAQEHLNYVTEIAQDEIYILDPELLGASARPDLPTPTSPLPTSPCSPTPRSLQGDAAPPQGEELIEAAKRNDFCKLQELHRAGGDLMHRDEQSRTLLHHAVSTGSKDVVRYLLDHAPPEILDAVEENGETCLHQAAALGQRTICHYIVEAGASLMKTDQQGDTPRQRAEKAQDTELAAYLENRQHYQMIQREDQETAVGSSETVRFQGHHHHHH

| Compound | IC50 (human DGKα [1]) | IC50 ([2]; Homo sapiens, Raji) | IC50 (human DGKζ [3]) | IC50 (human DGKζ [4]) | IC50 (human DGKα [5]) | IC50 [2] |
| --- | --- | --- | --- | --- | --- | --- |
| Cn1c(=O)c(C#N)c(N2CCN(Cc3cc(F)ccc3O)CC2)c2nc(Cl)ccc21 [Example 312, 6-chloro-4-{4-[(5-fluoro-2-hydroxyphenyl)methyl]piperazin-1-yl}-1-methyl-2-oxo-1,2-dihydro-1,5-naphthyridine-3-carbonitrile] | 220 nM | 240 nM | 16000 nM | > 240000 nM | 120 nM | – |
| C#CCn1c(=O)c([N+](=O)[O-])c(N2CCN(C(c3ccc(F)cc3)c3ccc(F)cc3)CC2)c2nc(C#N)ccc21 [Example 118, 8-(4-(bis(4-fluorophenyl)methyl)piperazin-1-yl)-7-nitro-6-oxo-5-(prop-2-yn-1-yl)-5,6-dihydro-1,5-naphthyridine-2-carbonitrile] | 1300 nM | 18 nM | 61 nM | 230 nM | 4200 nM | – |
| COc1ccc(O)c(CN2CCN(c3c(C#N)c(=O)n(C)c4ccc(Cl)nc34)CC2)c1 [Example 305, 6-chloro-4-{4-[(2-hydroxy-5-methoxyphenyl)methyl]piperazin-1-yl}-1-methyl-2-oxo-1,2-dihydro-1,5-naphthyridine-3-carbonitrile] | 490 nM | 210 nM | 7500 nM | 62000 nM | 130 nM | – |
| Cn1c(=O)c(C#N)c(N2CCN(Cc3cc(F)cc(C(F)(F)F)c3)CC2)c2nc(Cl)ccc21 [Example 313, 6-chloro-4-(4-{[3-fluoro-5-(trifluoromethyl)phenyl]methyl}piperazin-1-yl)-1-methyl-2-oxo-1,2-dihydro-1,5-naphthyridine-3-carbonitrile] | 17000 nM | 250 nM | 62000 nM | > 81000 nM | 1500 nM | – |
| Cn1c(=O)c(C#N)c(N2CCN(Cc3ccc(F)cc3O)CC2)c2nc(Br)ccc21 [Example 192, 6-bromo-4-(4-(4-fluoro-2-hydroxybenzyl)piperazin-1-yl)-1-methyl-2-oxo-1,2-dihydro-1,5-naphthyridine-3-carbonitrile] | 48 nM | 200 nM | 8100 nM | > 240000 nM | 84 nM | – |
| CCC(c1ccc(F)cc1)N1CCN(c2c(C#N)c(=O)n(C)c3ccc(Br)nc23)CC1 (single isomer, unassigned) [Example 27, 6-bromo-4-{4-[1-(4-fluorophenyl)propyl]piperazin-1-yl}-1-methyl-2-oxo-1,2-dihydro-1,5-naphthyridine-3-carbonitrile] | 110 nM | – | > 240000 nM | > 240000 nM | 110 nM | 57 nM |
| C#CCn1c(=O)c(C#N)c(N2CCN(C(c3ccc(F)cc3)c3ccc(F)cc3)CC2)c2nc(Br)ccc21 [Example 229, 4-(4-(bis(4-fluorophenyl)methyl)piperazin-1-yl)-6-bromo-2-oxo-1-(prop-2-yn-1-yl)-1,2-dihydro-1,5-naphthyridine-3-carbonitrile] | > 240000 nM | 120 nM | 11000 nM | 14000 nM | 14000 nM | – |
| CC(C)C(c1ccc(F)cc1)N1CCN(c2c(C#N)c(=O)n(C)c3ccc(Cl)nc23)CC1 (single isomer, unassigned) [Example 316, 6-chloro-4-{4-[1-(4-fluorophenyl)-2-methylpropyl]piperazin-1-yl}-methyl-2-oxo-1,2-dihydro-1,5-naphthyridine-3-carbonitrile] | 250 nM | – | > 240000 nM | > 240000 nM | 400 nM | 410 nM |
| CCC(c1ccc(F)cc1)N1CCN(c2c(C#N)c(=O)n(CC#N)c3ccc(Br)nc23)CC1 (stereo not drawn) [Example 155, 6-bromo-1-(cyanomethyl)-4-(4-(1-(4-fluorophenyl)propyl)piperazin-1-yl)-2-oxo-1,2-dihydro-1,5-naphthyridine-3-carbonitrile] | 71000 nM | 1600 nM | 63000 nM | 230000 nM | 24000 nM | – |
| Cc1ccc2c(n1)c(N1CCN(Cc3ccc(F)cc3O)CC1)c(C#N)c(=O)n2C [Example 194, 4-(4-(4-fluoro-2-hydroxybenzyl)piperazin-1-yl)-1,6-dimethyl-2-oxo-1,2-dihydro-1,5-naphthyridine-3-carbonitrile] | 180 nM | 440 nM | 8300 nM | 62000 nM | 76 nM | – |
| Cn1c(=O)c(C#N)c(N2CCN(Cc3cc(O)cc(F)c3)CC2)c2nc(Cl)ccc21 [Example 338, 6-chloro-4-{4-[(3-fluoro-5-hydroxyphenyl)methyl]piperazin-1-yl}-1-methyl-2-oxo-1,2-dihydro-1,5-naphthyridine-3-carbonitrile] | 5100 nM | 580 nM | 66000 nM | > 240000 nM | 1100 nM | – |
| Cn1c(=O)c(C(=O)C(F)(F)F)c(N2CCN(C(c3ccc(F)cc3)c3ccc(F)cc3)CC2)c2ncccc21 [Example 227, 4-(4-(bis(4-fluorophenyl)methyl)piperazin-1-yl)-1-methyl-3-(2,2,2-trifluoroacetyl)-1,5-naphthyridin-2(1H)-one] | 230000 nM | 1500 nM | 11000 nM | > 240000 nM | > 240000 nM | – |
| Cn1c(=O)c([N+](=O)[O-])c(N2CCN(C(c3ccc(F)cc3)c3ccccc3O)CC2)c2nc(C#N)ccc21 (single isomer, unassigned) [Example 99, 8-(4-((4-fluorophenyl)(2-hydroxyphenyl)methyl)piperazin-1-yl)-5-methyl-7-nitro-6-oxo-5,6-dihydro-1,5-naphthyridine-2-carbonitrile] | 720 nM | – | 40 nM | 670 nM | 410 nM | 9.4 nM |
| C#CCn1c(=O)c(C#N)c(N2CCN(Cc3ccc(C)cc3O)CC2)c2nc(Br)ccc21 [Example 66, 6-bromo-4-(4-(2-hydroxy-4-methylbenzyl)piperazin-1-yl)-2-oxo-1-(prop-2-yn-1-yl)-1,2-dihydro-1,5-naphthyridine-3-carbonitrile] | 230 nM | 48 nM | 1700 nM | 13000 nM | 84 nM | – |
| Cn1c(=O)c(C#N)c(N2CCN(Cc3ccccc3Cl)CC2)c2nc(Cl)ccc21 [Example 272, 6-chloro-4-{4-[(2-chlorophenyl)methyl]piperazin-1-yl}-1-methyl-2-oxo-1,2-dihydro-1,5-naphthyridine-3-carbonitrile] | 2300 nM | 64 nM | 10000 nM | > 240000 nM | 1500 nM | – |
| COc1ccc(CN2CCN(c3c(C#N)c(=O)n(C)c4ccc(Br)nc34)CC2)c(O)c1 [Example 295, 6-bromo-4-{4-[(2-hydroxy-4-methoxyphenyl)methyl]piperazin-1-yl}-1-methy-2-oxo-1,2-dihydro-1,5-naphthyridine-3-carbonitrile] | 160 nM | 140 nM | 6900 nM | 55000 nM | 130 nM | – |
| Cn1c(=O)c(C#N)c(N2CCN(Cc3ccc(Cl)cc3O)CC2)c2nc(C#N)ccc21 [Example 269, 8-{4-[(4-chloro-2-hydroxyphenyl)methyl]piperazin-1-yl}-5-methyl-6-oxo-5,6-dihydro-1,5-naphthyridine-2,7-dicarbonitrile] | 210 nM | 57 nM | 2800 nM | 26000 nM | 52 nM | – |
| Cc1ccc2c(n1)c(N1CCN(C(c3ccc(F)cc3)c3ccc(F)cc3)CC1)c(Br)c(=O)n2C [Example 239, 4-(4-(bis(4-fluorophenyl)methyl)piperazin-1-yl)-3-bromo-1,6-dimethyl-1,5-naphthyridin-2(1H)-one] | 9900 nM | 3600 nM | 51000 nM | > 240000 nM | 11000 nM | – |
| CC(c1ccc(F)cc1)N1CCN(c2c(C#N)c(=O)n(CC#N)c3ccc(Br)nc23)CC1 (stereo not drawn) [Example 154, 6-bromo-1-(cyanomethyl)-4-(4-(1-(4-fluorophenyl)ethyl)piperazin-1-yl)-2-oxo-1,2-dihydro-1,5-naphthyridine-3-carbonitrile] | 81000 nM | 880 nM | 72000 nM | > 240000 nM | 45000 nM | – |
| CCn1ccc2c(CN3CCN(c4c([N+](=O)[O-])c(=O)n(C)c5ccc(Br)nc45)CC3)cccc21 [Example 54, 6-bromo-4-(4-((1-ethyl-H-indol-4-yl)methyl)piperazin-1-yl)-1-methyl-3-nitro-1,5-naphthyridin-2(1H)-one] | 3100 nM | 63 nM | 1300 nM | 7300 nM | 820 nM | – |
| Cc1cccc(O)c1CN1CCN(c2c(C#N)c(=O)n(C)c3ccc(Br)nc23)CC1 [Example 259, 6-bromo-4-{4-[(2-hydroxy-6-methylphenyl)methyl]piperazin-yl}-1-methyl-2-oxo-1,2-dihydro-1,5-naphthyridine-3-carbonitrile] | 490 nM | 16 nM | 4000 nM | 55000 nM | 420 nM | – |
